# Like-named read-outs stand apart in the source and are kept apart here. Where a SMILES comes first, the peptide text is derived from it. The star is where a group is joined. Cbz = O=C(OCc1ccccc1)*
# Columns and labels:
# [1] = tested on: HSP72 induction (CHO cells); experiment: Inhibition of Hsp72 induction by heat shock in CHO cells (immunoblotting); type: cell-based; details: for IC50 / Inhibition of Hsp72 induction, second step of the screening: CHO cells; for Inhibition of Hsp72 induction by heat shock, NCI similarity set: concentrations between 2 and 10 μM; for Inhibition of Hsp72 induction, second step of the screening: 45° C. 10 min, then 6 hours at 37° C.
# [2] = tested on: CHO cells; experiment: Toxicity in CHO cells; type: cell-based; details: for IC50: Cricetulus griseus, read-out: IC50 toxicity
# Excerpt: Three of these compounds, including emetine, tubulosine, and NZ28, have significant structural similarity.
# [3] = tested on: HSP72; experiment: HSP72 induction in MM.1S cells (heat shock, proteasome or HSP90 inhibitors), immunoblotting; type: cell-based, human; details: for HSP72 induction by the drug / Inhibition of HSP72 induction by proteasome inhibitors: MM.1S; for HSP72 induction by the drug: 16 hours; for inhibition at 2 µM / inhibition at 10 µM: Homo sapiens, MM1.S; for inhibition at 2 µM: MM.1s, read-out: HSP72 Inhibition, by NZ28 (2 μM); for Inhibition of Hsp72 induction in response to Hsp90 inhibitors radicicol and 17-AAG: MM.1S blocked stronger than PC-3; for Inhibition of HSP72 induction by proteasome inhibitors: VELCADE or MG132 for 16 hours; for inhibition at 10 µM: read-out: HSP72 inhibition, by Emunin (10 μM), MM.1s
# [4] = tested on: MM.1S cells; experiment: Apoptosis by PARP cleavage in MM.1S cells
# [5] = tested on: HSP27; experiment: HSP27 induction by proteasome and HSP90 inhibitors in MM.1S cells, immunoblotting; details: VELCADE or Radicicol, emunin 10 μM, NZ28 2 μM added 5 hours before
# [6] = tested on: CMV-driven GFP; experiment: General protein synthesis: CMV-driven GFP expression in CHO cells; type: cell-based; details: added 16 hours post-infection, 24 hours, NZ28 2 μM, emunin 10 μM
# [7] = tested on: HSP72; experiment: HSP72 induction in MEF cells (proteasome or HSP90 inhibitors), immunoblotting; details: Mus musculus, read-out: HSP72 Inhibition, by NZ28 (2 μM)
# [8] = tested on: HSF1-activated Hsp70B promoter; experiment: HSF1 activity: luciferase reporter under Hsp70B promoter in PC-3 cells after heat shock; details: added 5 hours before 45° C. 10 min, overnight recovery
# [9] = tested on: HSP72; experiment: HSP72 induction in PC-3 cells (heat shock, proteasome or HSP90 inhibitors), immunoblotting; type: cell-based, human; details: for inhibition at 2 µM / inhibition at 10 µM: Homo sapiens; for inhibition at 2 µM: read-out: HSP72 Inhibition, by NZ28 (2 μM); for Inhibition of Hsp72 induction by 17-AAG: PC-3 cells
# [10] = tested on: luciferase under the tet-off promoter; experiment: General protein synthesis: luciferase induction under tet-off promoter in CHO cells; type: cell-based; details: 24 hours, NZ28 1 and 2 μM
# [11] = tested on: protein synthesis; details: cited from earlier work
# [12] = tested on: HCT-116 cells; experiment: Apoptosis by PARP cleavage in HCT-116 cells; type: cell-based, human
# Excerpt: Sensitization to proteasome and Hsp90 inhibitors was seen when we tested additional cancer cells lines. In fact, depletion of HSF1 by treatment with siRNA in either a distinct prostate carcinoma line DU-145 or colon carcinoma HCT-116 cells led to suppression of the heat shock response and increased sensitivity to MG132 and 17-AAG (FIG. 2). […] Depletion of HSF1 in these cells led to a dramatic reduction of the constitutive Hsp72 levels (FIG. 2B) and very strong sensitization to the drugs (FIGS. 2C, 2D, and 2E).
# [13] = tested on: PC-3 cells; experiment: Apoptosis by PARP cleavage in PC-3 cells
# [14] = tested on: PC-3 cells; experiment: Clonogenic survival of PC-3 cells
# [15] = Cricetulus griseus, heat shock, read-out: IC50 HSP72 Induction Inhibition (CHO cells)
# [16] = Cricetulus griseus, heat shock (FIGS. 3A and 3B), read-out: IC50 for inhibition of Hsps induction
# [17] = 4 min, Heat Shock 45° C., 4 min
# [18] = HSP90 Inhibitor Radicicol 0.8 μM
# [19] = Proteasome Inhibitor VELCADE 5 nM
smiles,measurement,setting,value
"CCC1=C(CC2NCCc3cc(OC)c(OC)cc32)CC2c3cc(OC)c(OC)cc3CCN2C1 (stereo not drawn) [dehydroemetine, reference compound]",IC50,[1]; [15],< 0.5 µM
same,"Inhibition of Hsp72 induction by heat shock, NCI similarity set",[1],inhibit Hsp72 induction
same,IC50,[2]; CHO cells,< 0.5 µM
"CC(C)C[C@H](NC(=O)[C@H](Cc1ccccc1)NC(=O)c1cnccn1)B(O)O [VELCADE®, bortezomib, reference compound]",HSP72 induction by the drug,[3],Strong induction
same,"PARP cleavage, VELCADE alone","[4]; 5 nM, overnight",30%
"O=c1c(O)c(-c2ccc(O)c(O)c2)oc2cc(O)cc(O)c12 [quercetin, reference compound]",IC50,[1]; [16],~50 µM
COc1ccc(CC2NCCc3cc(OC)c(OC)cc32)cc1OC (stereo not drawn) [NZ54],IC50,[1]; [15],> 10 µM
same,IC50,[2]; CHO cells,< 2 µM
CCC1=C(CC2NCCc3ccccc32)CC2c3cc(OC)c(OC)cc3CCN2C1 (stereo not drawn) [NZ28],"Inhibition of Hsp72 induction, second step of the screening",[1]; 2 μM,inhibit Hsp72 induction
same,inhibition at 2 µM,"[1]; Cricetulus griseus, 10 min, CHO, Heat Shock 45° C., 10 min, 2 μM, read-out: HSP72 Inhibition, by NZ28 (2 μM)",99%
same,IC50,[1]; [16],1 µM
same,IC50,[1]; [15],1 µM
same,inhibition at 2 µM,[3]; [17],100%
same,inhibition at 2 µM,[3]; [18],90%
same,inhibition at 2 µM,[3]; [19],100%
same,Inhibition of Hsp72 induction in response to Hsp90 inhibitors radicicol and 17-AAG,[3],inhibited induction of Hsp72
same,Inhibition of HSP72 induction by proteasome inhibitors,[3],almost completely inhibited HSP72 induction
same,Cell growth inhibition,[2]; CHO cells,slight growth inhibition
same,Toxicity,[2]; CHO cells,did not show toxicity
same,IC50,[2]; CHO cells,5 µM
same,Inhibition of Hsp27 induction,[5],inhibit HSP72 and HSP27 induction
same,Inhibition of GFP expression (CMV promoter),[6],No significant inhibition of GFP expression
same,inhibition at 2 µM,[7],100%
same,Inhibition of luciferase induction by heat shock (Hsp70B promoter reporter),[8],about 40%
same,inhibition at 2 µM,"[9]; PC-3, 20 min, PC-3, Heat Shock 45° C., 20 min",85%
same,inhibition at 2 µM,"[9]; PC-3, PC-3, HSP90 Inhibitor 17-AAG 2 μM",70%
same,inhibition at 2 µM,"[9]; PC-3, PC-3, Proteasome Inhibitor MG132 1 μM",90%
same,Inhibition of Hsp72 induction by 17-AAG,[9],significant but transient
same,Sensitization to radicicol (PARP cleavage),"[4]; 0.1 μM radicicol 48 h, 2 μM NZ28",similarly sensitized
same,Inhibition of luciferase expression (tet-off promoter),[10],Neither NZ28 (FIG. 3C) nor emunin (not shown) inhibited luciferase expression
COc1cc2c(cc1OC)C(CC1=CCN3CCc4ccccc4C3C1)NCC2 (stereo not drawn) [NZ60],IC50,[1]; [15],> 10 µM
same,IC50,[2]; CHO cells,< 2 µM
"CCC1CN2CCc3cc(OC)c(OC)cc3C2CC1CC1NCCc2cc(OC)c(OC)cc21 (stereo not drawn) [Emetine, reference compound]","Inhibition of Hsp72 induction, second step of the screening",[1]; 2 μM,inhibit Hsp72 induction
same,IC50,[1]; [15],< 0.25 µM
same,Concentration at which protein synthesis is inhibited,[11],above 10 μM
same,Toxicity in an apoptotic assay,[2],showed toxicity
same,IC50,[2]; CHO cells,< 0.25 µM
"CCC1CN2CCc3cc(OC)c(OC)cc3C2CC1CC1NCCc2cc(O)c(OC)cc21 (stereo not drawn) [Isocephaeline, Emetan-6′-ol, 7′,10,11-trimethoxy-,(1′beta)-]",IC50,[1]; [15],< 0.5 µM
same,"Inhibition of Hsp72 induction by heat shock, NCI similarity set",[1],inhibit Hsp72 induction
same,IC50,[2]; CHO,< 0.5 µM
CCC1CN2CCc3cc(OC)c(OC)cc3C2CC1CC1NCCc2c1[nH]c1ccc(OC)cc21 (stereo not drawn) [NZ72],IC50,[1]; [15],2 µM
same,"Inhibition of Hsp72 induction by heat shock, NCI similarity set",[1],inhibit Hsp72 induction
same,IC50,[2]; CHO cells,> 2 µM
C[C@@H]1C[C@H]2O[C@@H]2/C=C\C=C\C(=O)Cc2c(Cl)c(O)cc(O)c2C(=O)O1 [radicicol],Sensitivity of control cells,[12]; HCT-116 control cells,resistant
same,Sensitivity of si-HSF1 cells,[12]; HCT-116 si-HSF1 cells,quite sensitive
same,"PARP cleavage, radicicol alone","[4]; 0.5 μM, 24 hours",10%
CCC1=C(C)CC2c3cc(OC)c(OC)cc3CCN2C1 (stereo not drawn) [NZ61],IC50,[1]; [15],> 10 µM
same,IC50,[2]; CHO cells,< 2 µM
COc1cc2c(cc1OC)CN1CCc3cc(OC)c(OC)cc3C1C2 (stereo not drawn) [NZ50],IC50,[1]; [15],> 10 µM
same,IC50,[2]; CHO cells,< 2 µM
CCC1CN2CCc3cc(OC)c(OC)cc3C2CC1C1c2cc(OC)c(OC)cc2CCN1C(=O)CNC(=O)OC(C)(C)C (stereo not drawn) [NZ71],inhibition at 10 µM,"[1]; Cricetulus griseus, 10 min, CHO, Heat Shock 45° C., 10 min, 10 μM, read-out: HSP72 inhibition, by Emunin (10 μM)",95%
same,IC50,[1]; [16],5 µM
same,IC50,[1]; [15],5 µM
same,"Inhibition of Hsp72 induction by heat shock, NCI similarity set",[1],inhibit Hsp72 induction
same,Sensitization of si-HSF1 PC-3 cells to MG-132,[13]; HSF1-depleted PC-3 cells,no apparent sensitization
same,"PARP cleavage, MG132 and emunin","[13]; PC-3, 2 days",50%
same,Sensitization to radicicol,[13]; PC-3 cells,little sensitization
same,inhibition at 10 µM,[3]; [17],90%
same,inhibition at 10 µM,[3]; [18],90%
same,inhibition at 10 µM,[3]; [19],95%
same,Inhibition of Hsp72 induction in response to Hsp90 inhibitors radicicol and 17-AAG,[3],inhibited induction of Hsp72
same,Inhibition of HSP72 induction by proteasome inhibitors,[3],almost completely inhibited HSP72 induction
same,Cell growth inhibition,[2]; CHO cells,very little cell growth inhibition
same,Toxicity,[2]; CHO cells,non-toxic
same,IC50,[2]; CHO cells,> 10 µM
same,Inhibition of Hsp27 induction,[5],inhibit HSP72 and HSP27 induction
same,Inhibition of GFP expression (CMV promoter),[6],No significant inhibition of GFP expression
same,"Colony forming ability, emunin alone",[14],did not affect the colony forming ability
same,Inhibition of luciferase induction by heat shock (Hsp70B promoter reporter),[8],about 40%
same,inhibition at 10 µM,"[9]; PC-3, 20 min, read-out: HSP72 inhibition, by Emunin (10 μM), PC-3, Heat Shock 45° C., 20 min",80%
same,inhibition at 10 µM,"[9]; PC-3, read-out: HSP72 inhibition, by Emunin (10 μM), PC-3, HSP90 Inhibitor 17-AAG 2 μM",60%
same,inhibition at 10 µM,"[9]; PC-3, read-out: HSP72 inhibition, by Emunin (10 μM), PC-3, Proteasome Inhibitor MG132 1 μM",80%
same,Inhibition of Hsp72 induction by 17-AAG,[9],only weak inhibition
same,"PARP cleavage, emunin alone",[4],did not cause PARP cleavage
same,"PARP cleavage, emunin and VELCADE together","[4]; VELCADE 5 nM + 10 μM emunin, overnight",70%
same,"PARP cleavage, radicicol and emunin","[4]; radicicol 0.5 μM + 10 μM emunin, 24 hours",about 50%
"CC(C)C[C@@H](C=O)NC(=O)[C@H](CC(C)C)NC(=O)[C@H](CC(C)C)NC(=O)OCc1ccccc1 [MG132, N-carbobenzoxyl-Leu-Leu-leucinal, reference compound] (Cbz-Leu-Leu-Leu-aldehyde)","PARP cleavage, MG132 alone","[13]; PC-3, 2 days",approximately 10%
same,HSP72 induction by the drug,[3],Strong induction
same,"Sensitivity of si-HSF1 cells, colony forming ability",[14]; between 0.25 μM and 2 μM,very strong enhancement of sensitivity
same,Hsp72 induction by the drug,"[9]; PC-3 RetroQ cells, 24 hours",strongly induced
COc1cc2c(cc1OC)C(CC1=C(c3ccccc3)CN3CCc4cc(OC)c(OC)cc4C3C1)NCC2 (stereo not drawn) [NZ62],IC50,[1]; [15],> 10 µM
same,IC50,[2]; CHO cells,< 2 µM
CCC1CN2CCc3cc(OC)c(OC)cc3C2CC1CC1NCCc2c1[nH]c1ccc(O)cc21 (stereo not drawn) [tubulosine],"Inhibition of Hsp72 induction, second step of the screening",[1]; 2 μM,inhibit Hsp72 induction
same,IC50,[1]; [15],0.5 µM
same,Toxicity in an apoptotic assay,[2],showed toxicity
same,IC50,[2]; CHO,0.25 µM
"COc1cccc2c1C(=O)c1c(O)c3c(c(O)c1C2=O)C[C@@](O)(C(=O)CO)C[C@@H]3O[C@H]1C[C@H](N)[C@H](O)[C@H](C)O1 [doxorubicin, reference compound]",Sensitization to apoptosis by si-HSF1,[13],little or no sensitization
"C=CCNC1=C2C[C@@H](C)C[C@H](OC)[C@H](O)[C@@H](C)/C=C(\C)[C@H](OC(N)=O)[C@@H](OC)/C=C\C=C(/C)C(=O)NC(=CC1=O)C2=O [17-AAG, 17-(allylamino)-17-demethoxygeldanamycin, reference compound]",Increase in PARP cleavage on depletion of HSF1,"[13]; PC-3, 0.25 μM, 24 hours",100%
same,"Sensitization by si-HSF1, colony forming ability",[14]; wide range of concentrations,about 5 fold
same,Hsp72 induction by the drug,[9],strongly induced

# From US20090062222A1, “Methods for Sensitizing Cancer Cells to Inhibitors” (TRUSTEES OF BOSTON UNIVERSITY, priority 2005, published 2009)
